Our source for the Ki and Ratio values is ChEMBL document CHEMBL1132843, “A convenient procedure for the synthesis of nonsymmetrical bivalent selective serotonin reuptake inhibitors using polymer-supported reagents” (Bioorg Med Chem Lett, 2000).

SMILES strings stand for the structures. Where only a bound is given, the exact number is not on record here.

Assay [1] concerns the target Sodium-dependent dopamine transporter (Rattus norvegicus, UniProt P23977). In words: Inhibition of [3H]DA uptake at Dopamine transporter into rat nerve endings (synaptosomes). The assay is classed as subcellular, Brain.
Assay [2] has as its target Sodium-dependent serotonin transporter (Rattus norvegicus, UniProt P31652). In words: Inhibition of [3H]5-HT uptake into rat synaptosomes by Serotonin transporter. The format is functional, subcellular, Brain.
The target of assay [3] is Norepinephrine transporter (Rattus norvegicus, UniProt Q9WTR4). In words: Inhibition of norepinephrine transporter by inhibition of [3H]NE uptake into rat nerve endings (synaptosomes). The assay is classed as subcellular, Brain.
Assay [4] has as its target Monoamine transporters; serotonin & dopamine (Rattus norvegicus) (UniProt P31652+P23977). Briefly: Ratio of selective inhibition of dopamine(DA) to serotonin(5-HT) was evaluated. The format is protein assay.

Norepinephrine transporter, sequence (Q9WTR4 whole entry): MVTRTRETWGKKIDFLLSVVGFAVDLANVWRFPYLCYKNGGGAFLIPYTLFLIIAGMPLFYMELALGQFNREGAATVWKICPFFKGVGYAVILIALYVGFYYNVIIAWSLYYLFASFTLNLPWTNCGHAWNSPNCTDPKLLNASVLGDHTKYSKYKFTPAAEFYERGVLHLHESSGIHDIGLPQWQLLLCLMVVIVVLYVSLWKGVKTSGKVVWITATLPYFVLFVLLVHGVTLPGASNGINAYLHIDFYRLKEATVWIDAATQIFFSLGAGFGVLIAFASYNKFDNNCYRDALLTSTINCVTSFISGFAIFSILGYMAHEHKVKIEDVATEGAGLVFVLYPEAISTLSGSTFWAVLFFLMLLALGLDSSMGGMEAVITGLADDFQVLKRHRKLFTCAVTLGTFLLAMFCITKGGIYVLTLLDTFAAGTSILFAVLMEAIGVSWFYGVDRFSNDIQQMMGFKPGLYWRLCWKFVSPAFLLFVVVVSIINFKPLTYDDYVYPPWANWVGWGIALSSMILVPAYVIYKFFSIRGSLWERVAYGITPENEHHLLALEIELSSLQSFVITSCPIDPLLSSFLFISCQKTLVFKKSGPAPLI
Sodium-dependent dopamine transporter, sequence (P23977 whole entry): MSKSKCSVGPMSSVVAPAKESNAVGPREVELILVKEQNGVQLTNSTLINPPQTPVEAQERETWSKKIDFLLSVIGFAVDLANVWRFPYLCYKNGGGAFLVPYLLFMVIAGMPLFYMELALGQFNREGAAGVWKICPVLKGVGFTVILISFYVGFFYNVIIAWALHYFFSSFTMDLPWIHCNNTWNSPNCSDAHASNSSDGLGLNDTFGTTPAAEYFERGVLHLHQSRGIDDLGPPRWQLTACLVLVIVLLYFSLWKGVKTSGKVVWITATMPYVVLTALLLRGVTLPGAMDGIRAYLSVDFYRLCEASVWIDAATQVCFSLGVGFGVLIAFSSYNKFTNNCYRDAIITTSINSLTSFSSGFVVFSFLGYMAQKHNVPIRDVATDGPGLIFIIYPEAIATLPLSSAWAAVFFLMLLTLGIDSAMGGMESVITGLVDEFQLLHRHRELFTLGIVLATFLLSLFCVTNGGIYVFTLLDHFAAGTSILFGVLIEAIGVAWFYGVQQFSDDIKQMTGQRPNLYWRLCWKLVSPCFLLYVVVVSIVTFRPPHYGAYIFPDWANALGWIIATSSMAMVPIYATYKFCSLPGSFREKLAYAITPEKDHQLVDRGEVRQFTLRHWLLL
Monoamine transporters; serotonin & dopamine (Rattus norvegicus), sequence (P23977 whole entry, looked up): as the sequence (P23977 whole entry) above
Monoamine transporters; serotonin & dopamine (Rattus norvegicus), sequence (P31652 whole entry, looked up): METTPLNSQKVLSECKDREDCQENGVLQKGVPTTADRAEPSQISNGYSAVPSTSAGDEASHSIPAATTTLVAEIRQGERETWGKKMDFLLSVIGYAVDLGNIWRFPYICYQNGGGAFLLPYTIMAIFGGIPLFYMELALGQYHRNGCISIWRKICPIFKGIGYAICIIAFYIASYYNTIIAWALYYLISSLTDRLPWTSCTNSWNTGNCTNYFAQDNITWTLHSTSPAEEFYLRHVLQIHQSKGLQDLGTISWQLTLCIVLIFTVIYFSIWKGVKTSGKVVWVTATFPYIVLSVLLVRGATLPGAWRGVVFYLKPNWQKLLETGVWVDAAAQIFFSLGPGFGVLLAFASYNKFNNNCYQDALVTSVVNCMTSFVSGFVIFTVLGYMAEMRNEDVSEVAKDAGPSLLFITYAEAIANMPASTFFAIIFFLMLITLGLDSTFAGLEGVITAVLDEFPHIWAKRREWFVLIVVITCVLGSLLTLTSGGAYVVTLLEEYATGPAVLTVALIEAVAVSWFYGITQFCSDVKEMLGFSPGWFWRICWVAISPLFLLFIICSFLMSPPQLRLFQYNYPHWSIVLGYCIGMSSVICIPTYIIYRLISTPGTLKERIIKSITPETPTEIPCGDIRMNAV
Sodium-dependent serotonin transporter, sequence (P31652 whole entry): as the sequence (P31652 whole entry, looked up) above

On to `CN1CC[C@@H](c2ccc(Cl)cc2)[C@H](C(=O)NCc2ccc(CNC(=O)c3ccc(Cl)cc3)cc2)C1`, for which the inhibition constant Ki was determined as 3710 nM in assay [1], 84 nM in assay [2] and 1540 nM in assay [3]. For the same molecule, the Ratio in assay [4] amounted to 44.
Taken in the same sequence, the figures for `CN1CC[C@@H](c2ccc(Cl)cc2)[C@H](C(=O)NCc2ccc(CNC(=O)c3cccc(Cl)c3)cc2)C1` were greater than 4000 nM, 33 nM, 1040 nM and greater than 121.
The corresponding values for `CN1CC[C@@H](c2ccc(Cl)cc2)[C@H](C(=O)NCc2ccc(CNC(=O)c3ccc(C(F)(F)F)cc3)cc2)C1` are greater than 4000 nM, 334 nM, 651 nM and greater than 12.
On to `CN1CC[C@@H](c2ccc(Cl)cc2)[C@H](C(=O)NCc2ccc(CNC(=O)CCc3ccccc3)cc2)C1`, for which the Ki is greater than 2000 nM in assay [1], 67 nM in assay [2] and greater than 1000 nM in assay [3]. The Ratio in assay [4] is greater than 30.
`CN1CC[C@@H](c2ccc(Cl)cc2)[C@H](C(=O)NCc2ccc(CNC(=O)c3ccc(Cl)cc3Cl)cc2)C1` yielded a Ki in assay [2] of 139 nM.
`CN1CC[C@@H](c2ccc(Cl)cc2)[C@H](C(=O)NCc2ccc(CNC(=O)c3ccccc3)cc2)C1` showed a Ki in assay [2] of 30 nM.
Turning to `CN1CC[C@@H](c2ccc(Cl)cc2)[C@H](C(=O)NCCCCCNC(=O)[C@@H]2CN(C)CC[C@H]2c2ccc(Cl)cc2)C1`, the Ki in assay [1] was determined as 1960 nM; in assay [2], 1.2 nM; in assay [3], 399 nM. Besides, the Ratio in assay [4] was 1630.
Taken in the same sequence, the figures for `CN1CC[C@@H](c2ccc(Cl)cc2)[C@H](C(=O)NCc2ccc(CNC(=O)[C@@H]3CN(C)CC[C@H]3c3ccc(Cl)cc3)cc2)C1` were 2270 nM, 0.32 nM, 74 nM and greater than 7000.
On to `COc1ccc(C(=O)NCc2ccc(CNC(=O)[C@@H]3CN(C)CC[C@H]3c3ccc(Cl)cc3)cc2)cc1`, for which the Ki in assay [2] stood at 92 nM.
Turning to `CN1CC[C@@H](c2ccc(Cl)cc2)[C@H](C(=O)NCc2ccc(CNC(=O)/C=C/c3ccc(Cl)cc3)cc2)C1`, the Ki was greater than 2000 nM in assay [1], 69 nM in assay [2] and greater than 2000 nM in assay [3]. Moreover, in assay [4], the Ratio is greater than 29.
`Cc1ccc(C(=O)NCc2ccc(CNC(=O)[C@@H]3CN(C)CC[C@H]3c3ccc(Cl)cc3)cc2)cc1`: the Ki in assay [1] is greater than 7000 nM; in assay [2] it was 195 nM; in assay [3], greater than 1000 nM. Besides, the Ratio in assay [4] is greater than 36.
In the case of `CN1CC[C@@H](c2ccc(Cl)cc2)[C@H](C(=O)NCc2ccc(CNC(=O)c3cccc(C(F)(F)F)c3)cc2)C1`, the inhibitory constant (Ki) in assay [1] was greater than 5000 nM; in assay [2], 35 nM; in assay [3], 508 nM. Also, in assay [4], the Ratio is greater than 143.

The Ki is the dissociation constant of the complex between target and ligand, obtained from inhibition or displacement.
